# Reference: patent US11319298B2 (Merck Sharp & Dohme Corp., priority 2016, dated 2022)
# Target: T1, human M4 muscarinic acetylcholine receptor (Homo sapiens, UniProt P08173)
# T1 construct: expressed in transfected cells; host or cells: CHO-K1
# T1 sequence (P08173 1-479): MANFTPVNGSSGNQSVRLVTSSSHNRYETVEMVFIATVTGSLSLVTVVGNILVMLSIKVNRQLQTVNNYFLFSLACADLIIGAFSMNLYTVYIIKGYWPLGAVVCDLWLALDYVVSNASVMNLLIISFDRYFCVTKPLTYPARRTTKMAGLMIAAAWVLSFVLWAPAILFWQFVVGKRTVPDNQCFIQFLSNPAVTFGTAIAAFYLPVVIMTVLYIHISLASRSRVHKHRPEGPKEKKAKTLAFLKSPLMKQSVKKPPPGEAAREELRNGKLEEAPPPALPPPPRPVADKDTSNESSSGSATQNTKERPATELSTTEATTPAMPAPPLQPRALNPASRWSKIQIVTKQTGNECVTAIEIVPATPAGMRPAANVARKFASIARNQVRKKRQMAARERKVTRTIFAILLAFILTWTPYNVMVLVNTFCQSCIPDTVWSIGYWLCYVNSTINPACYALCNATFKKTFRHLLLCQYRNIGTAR
# Assay: human FLIPR-based M4 PAM assay, CHO-K1 cells stably transfected with human M4 receptor and chimeric G-protein Gαqi5
# Format: cell-based
# Conditions: inflection point (IP) of dose response curve; acetylcholine added at 20% of maximum response; CHO-K1 human M4/Gαqi5, FLIPR Tetra
# In short: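 The FLIPR read recorded 4 min after compound was added across a concentration range, then 3.5 min after acetylcholine giving 20% of its maximal response, with an occasional extra EC70 addition. Cells were dye-loaded for about 1 h at 37 °C. Potency is the curve inflection point from a four-parameter logistic fit.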
row,SMILES,EC50
1,"COc1ccc(OC2CCN(c3nc(SC)nc(Cl)c3C)CC2)cn1 [Example 82, 4-chloro-6-(4-((6-methoxypyridin-3-yl)oxy)piperidin-1-yl)-5-methyl-2-(methylthio)pyrimidine]",385 nM
2,"COc1ccc(OC2CCN(c3nc(SC)ncc3C#N)CC2)cc1 [Example 95, 4-(4-(4-methoxyphenoxy)piperidin-1-yl)-2-(methylthio)pyrimidine-5-carbonitrile]",803 nM
3,"COc1ccc(O[C@@H]2CCN(c3nc(C)ncc3C)C[C@@H]2F)cn1 [Example 84, 4-((3S,4R)-3-fluoro-4-((6-methoxypyridin-3-yl)oxy)piperidin-1-yl)-2,5-dimethylpyrimidine]",574 nM
4,"COC(=O)c1cc(C)c(N2CCC(Oc3ccc(OC)nc3)CC2)nc1C#N [Example 45, methyl 2-cyano-6-(4-((6-methoxypyridin-3-yl)oxy)piperidin-1-yl)-5-methylnicotinate]",493 nM
5,"COc1ccc(OC2CCN(c3nc(C(=O)NC(C)C)nc(Cl)c3C)CC2)cn1 [Example 213, 4-chloro-N-isopropyl-6-(4-((6-methoxypyridin-3-yl)oxy)piperidin-1-yl)-5-methylpyrimidine-2-carboxamide]",729 nM
6,"COc1ccc(OC2CCN(c3nnc(C(=O)NCc4ccncn4)cc3C)CC2)cn1 [Example 150, 6-{4-[(6-methoxypyridin-3-yl)oxy]piperidin-1-yl}-5-methyl-N-(pyrimidin-4-ylmethyl)pyridazine-3-carboxamide]",233 nM
7,"CNC(=O)c1cc(C)c(N2CCC(Oc3ccc(OC)nc3)CC2)nn1 [Example 129, 6-{4-[(6-methoxypyridin-3-yl)oxy]piperidin-1-yl}-N,5-dimethylpyridazine-3-carboxamide]",121 nM
8,"COc1ccc(OC2CCN(c3nnc(C(=O)NCc4cnn[nH]4)cc3C)CC2)cn1 [Example 118, 6-{4-[(6-methoxypyridin-3-yl)oxy]piperidin-1-yl}-5-methyl-N-(1H-1,2,3-triazol-5-ylmethyl)pyridazine-3-carboxamide]",86 nM
9,"Cc1cc(C(=O)N[C@H]2CCc3ncccc3C2)nnc1N1CCC(Oc2cccc(C#N)c2)CC1 [Example 130A, (S)-6-[4-(3-cyanophenoxy)piperidin-1-yl]-5-methyl-N-(5,6,7,8-tetrahydroquinolin-6-yl)pyridazine-3-carboxamide]",125 nM
10,"Cc1ncc(C)c(N2CCC(Oc3cccnc3)CC2)n1 [Example 19, 2,5-dimethyl-4-(4-(pyridin-3-yloxy)piperidin-1-yl)pyrimidine]",2920 nM
11,"COc1ccc(OC2CCN(c3ncncc3Br)CC2)cn1 [Example 95D, 5-bromo-4-(4-((6-methoxypyridin-3-yl)oxy)piperidin-1-yl)pyrimidine]",928 nM
12,"COc1ccc(OC2CCN(c3ncnc(N)c3C)CC2)cn1 [Example 89, 6-(4-((6-methoxypyridin-3-yl)oxy)piperidin-1-yl)-5-methylpyrimidin-4-amine]",1610 nM
13,"COc1ccc(OC2CCN(c3ncnc(N4CCc5scnc5C4)c3C)CC2)cn1 [Example 229, 5-(6-(4-((6-methoxypyridin-3-yl)oxy)piperidin-1-yl)-5-methylpyrimidin-4-yl)-4,5,6,7-tetrahydrothiazolo[4,5-c]pyridine]",807 nM
14,"COc1ccc(OC2CCN(c3nnc(C)c(C)c3C#N)CC2)cn1 [Example 86, 3-(4-((6-methoxypyridin-3-yl)oxy)piperidin-1-yl)-5,6-dimethylpyridazine-4-carbonitrile]",1170 nM
15,"Cc1cc(C(=O)NC2CCc3cnccc3C2)nnc1N1CCC(Oc2cccc(C#N)c2)CC1 (stereo not drawn) [Example 172, 6-[4-(3-cyanophenoxy)piperidin-1-yl]-5-methyl-N-(5,6,7,8-tetrahydroisoquinolin-6-yl)pyridazine-3-carboxamide]",508 nM
16,"Cc1cc(C(=O)NC2CCc3ccccc3C2)nnc1N1CCC(Oc2cccc(C#N)c2)CC1 (stereo not drawn) [Example 201, 6-[4-(3-cyanophenoxy)piperidin-1-yl]-5-methyl-N-(1,2,3,4-tetrahydronaphthalen-2-yl)pyridazine-3-carboxamide]",272 nM
17,"COc1ccc(OC2CCN(c3nnc(C(=O)NCc4ccc(C#N)cc4)cc3C)CC2)cn1 [Example 171, N-(4-cyanobenzyl)-6-{4-[(6-methoxypyridin-3-yl)oxy]piperidin-1-yl}-5-methylpyridazine-3-carboxamide]",471 nM

row,SMILES,EC50
1,"COc1ccc(OC2CCN(c3nnc(C(=O)NCc4ccccc4Cl)cc3C)CC2)cn1 [Example 195, N-(2-chlorobenzyl)-6-{4-[(6-methoxypyridin-3-yl)oxy]piperidin-1-yl}-5-methylpyridazine-3-carboxamide]",57 nM
2,"COc1ccc(OC2CCN(c3nc(C(=O)NC4CCc5ccccc5C4)nc(Cl)c3C)CC2)cn1 (stereo not drawn) [Example 221, 4-chloro-6-(4-((6-methoxypyridin-3-yl)oxy)piperidin-1-yl)-5-methyl-N-(1,2,3,4-tetrahydronaphthalen-2-yl)pyrimidine-2-carboxamide]",1830 nM
3,"COc1ccc(OC2CCN(c3ncnc(N4C[C@H](F)[C@@H](F)C4)c3C)CC2)cn1 [Example 230, 4-((3S,4S)-3,4-difluoropyrrolidin-1-yl)-6-(4-((6-methoxypyridin-3-yl)oxy)piperidin-1-yl)-5-methylpyrimidine]",1040 nM
4,"COc1ccc(OC2CCN(c3nnc(C(=O)NCc4ccc5c(c4)CNC5=O)cc3C)CC2)cn1 [Example 175, 6-{4-[(6-methoxypyridin-3-yl)oxy]piperidin-1-yl}-5-methyl-N-[(1-oxo-2,3-dihydro-1H-isoindol-5-yl)methyl]pyridazine-3-carboxamide]",573 nM
5,"COc1ccc(OC2CCN(c3nc(C(N)=O)nc(Br)c3C)CC2)cn1 [Example 225A, 4-bromo-6-(4-((6-methoxypyridin-3-yl)oxy)piperidin-1-yl)-5-methylpyrimidine-2-carboxamide]",62 nM
6,"COc1ccc(OC2CCN(c3nnc(C(=O)N[C@H]4CCc5ccccc54)cc3C)CC2)cn1 [Example 173, N-[(1S)-2,3-dihydro-1H-inden-1-yl]-6-{4-[(6-methoxypyridin-3-yl)oxy]piperidin-1-yl}-5-methylpyridazine-3-carboxamide]",552 nM
7,"COc1ncc(OC2CCN(c3nnc(C(=O)NCc4ccncc4)cc3C)CC2)cc1F [Example 140, 6-{4-[(5-fluoro-6-methoxypyridin-3-yl)oxy]piperidin-1-yl}-5-methyl-N-(pyridin-4-ylmethyl)pyridazine-3-carboxamide]",179 nM
8,"COc1ccc(OC2CCN(c3nnc(C(=O)NCc4ncn[nH]4)cc3C)CC2)cn1 [Example 167, 6-{4-[(6-methoxypyridin-3-yl)oxy]piperidin-1-yl}-5-methyl-N-(1H-1,2,4-triazol-5-ylmethyl)pyridazine-3-carboxamide]",417 nM
9,"Cc1c(Cl)nc(C2CC2)nc1N1CCC(Oc2cccnc2)CC1 [Example 95B, 4-chloro-2-cyclopropyl-5-methyl-6-(4-(pyridin-3-yloxy)piperidin-1-yl)pyrimidine]",435 nM
10,"COc1ccc(OC2CCN(c3nnc(C(=O)NCc4ccc5c(c4)CCO5)cc3C)CC2)cn1 [Example 176, N-(2,3-dihydro-1-benzofuran-5-ylmethyl)-6-{4-[(6-methoxypyridin-3-yl)oxy]piperidin-1-yl}-5-methylpyridazine-3-carboxamide]",629 nM
11,"COc1ccc(OC2CCN(c3nnc(C(=O)NCc4cccc(C#N)c4)cc3C)CC2)cn1 [Example 153, N-(3-cyanobenzyl)-6-{4-[(6-methoxypyridin-3-yl)oxy]piperidin-1-yl}-5-methylpyridazine-3-carboxamide]",261 nM
12,"COc1ccc(OC2CCN(c3nnc(C(=O)NCCc4ccccc4Cl)cc3C)CC2)cn1 [Example 197, N-[2-(2-chlorophenyl)ethyl]-6-{4-[(6-methoxypyridin-3-yl)oxy]piperidin-1-yl}-5-methylpyridazine-3-carboxamide]",91 nM
13,"COc1ccc(OC2CCN(c3nnc(C(=O)Nc4cccnc4)cc3C)CC2)cn1 [Example 137, 6-{4-[(6-methoxypyridin-3-yl)oxy]piperidin-1-yl}-5-methyl-N-pyridin-3-ylpyridazine-3-carboxamide]",175 nM
14,"COc1ccc(OC2CCN(c3nnc(C(=O)N[C@@H]4CCc5ccccc5C4)cc3C)CC2)cn1 [Example 165A, (R)-6-{4-[(6-methoxypyridin-3-yl)oxy]piperidin-1-yl}-5-methyl-N-(1,2,3,4-tetrahydronaphthalen-2-yl)pyridazine-3-carboxamide]",344 nM
15,"COc1ccc(OC2CCN(c3nnc(C(=O)N[C@H]4CCc5ncccc5C4)cc3C)CC2)cn1 [Example 141B, (S)-6-(4-((6-methoxypyridin-3-yl)oxy)piperidin-1-yl)-5-methyl-N-(5,6,7,8-tetrahydroquinolin-6-yl)pyridazine-3-carboxamide]",173 nM
16,"COc1ccc(OC2CCN(c3nc(S(C)(=O)=O)nc(Cl)c3C)CC2)cn1 [Example 226, 4-Chloro-6-(4-((6-methoxypyridin-3-yl)oxy)piperidin-1-yl)-5-methyl-2-(methylsulfonyl)pyrimidine]",231 nM
